According to the supplement of paper PMC9912026:

Test system: A375_aEGFR2
Assay: pERK immunofluorescence normalised to no-drug reference (=1); higher = more ERK phosphorylation (less pathway inhibition)
Conditions: drug treatment time 24 h, EGF time 8 h
Description: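 A375 CRISPRa-EGFR (A375_aEGFR2) or HT29 cells were treated with two-drug dose combinations (vemurafenib, LY3009120, cobimetinib) for 24 h, then stimulated with EGF (100 ng/mL) or mock medium for 8 h. pERK (T202/Y204) was measured by immunofluorescence as the cytosolic population average, normalised to an untreated no-drug reference of the block (=1). Averages of 2 technical replicates. A375 in 5% FBS, HT29 in 10% FBS.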

CNc1ncc2cc(-c3cc(NC(=O)NCCC(C)(C)C)c(F)cc3C)c(C)nc2n1 + O=C(c1ccc(F)c(F)c1Nc1ccc(I)cc1F)N1CC(O)([C@@H]2CCCCN2)C1 [Cobimetinib]
pERK immunofluorescence normalised
Conditions | EGF 0 ng/mL | EGF 100 ng/mL
drug A concentration 0 µM, drug B concentration 31.62 pM | 1.06 | 0.985
drug A concentration 0 µM, drug B concentration 0.0001 µM | 1.04 | 0.985
drug A concentration 0 µM, drug B concentration 0.000316228 µM | 1.08 | 0.976
drug A concentration 0 µM, drug B concentration 0.001 µM | 0.997 | 0.964
drug A concentration 0 µM, drug B concentration 0.00316228 µM | 0.841 | 0.85
drug A concentration 0 µM, drug B concentration 0.01 µM | 0.546 | 0.726
drug A concentration 0 µM, drug B concentration 0.0316228 µM | 0.29 | 0.564
drug A concentration 0 µM, drug B concentration 0.1 µM | 0.243 | 0.541
drug A concentration 0 µM, drug B concentration 0.316228 µM | 0.235 | 0.428
drug A concentration 0 µM, drug B concentration 1 µM | 0.235 | 0.278
drug A concentration 0.0001 µM, drug B concentration 0 µM | 1.07 | 0.987
drug A concentration 0.0001 µM, drug B concentration 31.62 pM | 0.993 | 0.987
drug A concentration 0.0001 µM, drug B concentration 0.0001 µM | 1.05 | 1.01
drug A concentration 0.0001 µM, drug B concentration 0.000316228 µM | 1.01 | 0.946
drug A concentration 0.0001 µM, drug B concentration 0.001 µM | 0.966 | 0.944
drug A concentration 0.0001 µM, drug B concentration 0.00316228 µM | 0.816 | 0.848
drug A concentration 0.0001 µM, drug B concentration 0.01 µM | 0.498 | 0.692
drug A concentration 0.0001 µM, drug B concentration 0.0316228 µM | 0.284 | 0.606
drug A concentration 0.0001 µM, drug B concentration 0.1 µM | 0.242 | 0.545
drug A concentration 0.0001 µM, drug B concentration 0.316228 µM | 0.234 | 0.416
drug A concentration 0.0001 µM, drug B concentration 1 µM | 0.233 | 0.259
drug A concentration 0.000316228 µM, drug B concentration 0 µM | 1.05 | 1.03
drug A concentration 0.000316228 µM, drug B concentration 31.62 pM | 0.999 | 1.03
drug A concentration 0.000316228 µM, drug B concentration 0.0001 µM | 1.02 | 1.03
drug A concentration 0.000316228 µM, drug B concentration 0.000316228 µM | 1.01 | 0.998
drug A concentration 0.000316228 µM, drug B concentration 0.001 µM | 0.945 | 0.935
drug A concentration 0.000316228 µM, drug B concentration 0.00316228 µM | 0.829 | 0.882
drug A concentration 0.000316228 µM, drug B concentration 0.01 µM | 0.517 | 0.722
drug A concentration 0.000316228 µM, drug B concentration 0.0316228 µM | 0.298 | 0.611
drug A concentration 0.000316228 µM, drug B concentration 0.1 µM | 0.245 | 0.533
drug A concentration 0.000316228 µM, drug B concentration 0.316228 µM | 0.233 | 0.352
drug A concentration 0.000316228 µM, drug B concentration 1 µM | 0.233 | 0.234
drug A concentration 0.001 µM, drug B concentration 0 µM | 1.02 | 1
drug A concentration 0.001 µM, drug B concentration 31.62 pM | 0.985 | 0.999
drug A concentration 0.001 µM, drug B concentration 0.0001 µM | 1 | 0.937
drug A concentration 0.001 µM, drug B concentration 0.000316228 µM | 1.02 | 0.923
drug A concentration 0.001 µM, drug B concentration 0.001 µM | 0.892 | 0.935
drug A concentration 0.001 µM, drug B concentration 0.00316228 µM | 0.807 | 0.832
drug A concentration 0.001 µM, drug B concentration 0.01 µM | 0.498 | 0.709
drug A concentration 0.001 µM, drug B concentration 0.0316228 µM | 0.288 | 0.558
drug A concentration 0.001 µM, drug B concentration 0.1 µM | 0.238 | 0.444
drug A concentration 0.001 µM, drug B concentration 0.316228 µM | 0.233 | 0.258
drug A concentration 0.001 µM, drug B concentration 1 µM | 0.232 | 0.218
drug A concentration 0.00316228 µM, drug B concentration 0 µM | 0.921 | 0.917
drug A concentration 0.00316228 µM, drug B concentration 31.62 pM | 0.894 | 0.899
drug A concentration 0.00316228 µM, drug B concentration 0.0001 µM | 0.938 | 0.957
drug A concentration 0.00316228 µM, drug B concentration 0.000316228 µM | 0.912 | 0.905
drug A concentration 0.00316228 µM, drug B concentration 0.001 µM | 0.817 | 0.849
drug A concentration 0.00316228 µM, drug B concentration 0.00316228 µM | 0.675 | 0.753
drug A concentration 0.00316228 µM, drug B concentration 0.01 µM | 0.432 | 0.595
drug A concentration 0.00316228 µM, drug B concentration 0.0316228 µM | 0.275 | 0.439
drug A concentration 0.00316228 µM, drug B concentration 0.1 µM | 0.237 | 0.309
drug A concentration 0.00316228 µM, drug B concentration 0.316228 µM | 0.231 | 0.225
drug A concentration 0.00316228 µM, drug B concentration 1 µM | 0.232 | 0.214
drug A concentration 0.01 µM, drug B concentration 0 µM | 0.728 | 0.795
drug A concentration 0.01 µM, drug B concentration 31.62 pM | 0.777 | 0.778
drug A concentration 0.01 µM, drug B concentration 0.0001 µM | 0.787 | 0.8
drug A concentration 0.01 µM, drug B concentration 0.000316228 µM | 0.745 | 0.753
drug A concentration 0.01 µM, drug B concentration 0.001 µM | 0.613 | 0.674
drug A concentration 0.01 µM, drug B concentration 0.00316228 µM | 0.495 | 0.622
drug A concentration 0.01 µM, drug B concentration 0.01 µM | 0.31 | 0.454
drug A concentration 0.01 µM, drug B concentration 0.0316228 µM | 0.247 | 0.333
drug A concentration 0.01 µM, drug B concentration 0.1 µM | 0.24 | 0.245
drug A concentration 0.01 µM, drug B concentration 0.316228 µM | 0.231 | 0.216
drug A concentration 0.01 µM, drug B concentration 1 µM | 0.231 | 0.212
drug A concentration 0.0316228 µM, drug B concentration 0 µM | 0.503 | 0.601
drug A concentration 0.0316228 µM, drug B concentration 31.62 pM | 0.461 | 0.56
drug A concentration 0.0316228 µM, drug B concentration 0.0001 µM | 0.488 | 0.582
drug A concentration 0.0316228 µM, drug B concentration 0.000316228 µM | 0.466 | 0.546
drug A concentration 0.0316228 µM, drug B concentration 0.001 µM | 0.385 | 0.524
drug A concentration 0.0316228 µM, drug B concentration 0.00316228 µM | 0.314 | 0.441
drug A concentration 0.0316228 µM, drug B concentration 0.01 µM | 0.258 | 0.351
drug A concentration 0.0316228 µM, drug B concentration 0.0316228 µM | 0.239 | 0.263
drug A concentration 0.0316228 µM, drug B concentration 0.1 µM | 0.234 | 0.223
drug A concentration 0.0316228 µM, drug B concentration 0.316228 µM | 0.231 | 0.212
drug A concentration 0.0316228 µM, drug B concentration 1 µM | 0.231 | 0.218
drug A concentration 0.1 µM, drug B concentration 0 µM | 0.301 | 0.436
drug A concentration 0.1 µM, drug B concentration 31.62 pM | 0.293 | 0.419
drug A concentration 0.1 µM, drug B concentration 0.0001 µM | 0.302 | 0.422
drug A concentration 0.1 µM, drug B concentration 0.000316228 µM | 0.286 | 0.399
drug A concentration 0.1 µM, drug B concentration 0.001 µM | 0.273 | 0.373
drug A concentration 0.1 µM, drug B concentration 0.00316228 µM | 0.251 | 0.347
drug A concentration 0.1 µM, drug B concentration 0.01 µM | 0.238 | 0.281
drug A concentration 0.1 µM, drug B concentration 0.0316228 µM | 0.232 | 0.233
drug A concentration 0.1 µM, drug B concentration 0.1 µM | 0.231 | 0.215
drug A concentration 0.1 µM, drug B concentration 0.316228 µM | 0.23 | 0.211
drug A concentration 0.1 µM, drug B concentration 1 µM | 0.231 | 0.211
drug A concentration 0.316228 µM, drug B concentration 0 µM | 0.246 | 0.336
drug A concentration 0.316228 µM, drug B concentration 31.62 pM | 0.248 | 0.325
drug A concentration 0.316228 µM, drug B concentration 0.0001 µM | 0.25 | 0.339
drug A concentration 0.316228 µM, drug B concentration 0.000316228 µM | 0.246 | 0.317
drug A concentration 0.316228 µM, drug B concentration 0.001 µM | 0.245 | 0.298
drug A concentration 0.316228 µM, drug B concentration 0.00316228 µM | 0.238 | 0.272
drug A concentration 0.316228 µM, drug B concentration 0.01 µM | 0.235 | 0.234
drug A concentration 0.316228 µM, drug B concentration 0.0316228 µM | 0.232 | 0.216
drug A concentration 0.316228 µM, drug B concentration 0.1 µM | 0.232 | 0.211
drug A concentration 0.316228 µM, drug B concentration 0.316228 µM | 0.23 | 0.211
drug A concentration 0.316228 µM, drug B concentration 1 µM | 0.231 | 0.212
drug A concentration 1 µM, drug B concentration 0 µM | 0.239 | 0.26
drug A concentration 1 µM, drug B concentration 31.62 pM | 0.24 | 0.254
drug A concentration 1 µM, drug B concentration 0.0001 µM | 0.248 | 0.252
drug A concentration 1 µM, drug B concentration 0.000316228 µM | 0.238 | 0.246
drug A concentration 1 µM, drug B concentration 0.001 µM | 0.237 | 0.242
drug A concentration 1 µM, drug B concentration 0.00316228 µM | 0.236 | 0.246
drug A concentration 1 µM, drug B concentration 0.01 µM | 0.235 | 0.217
drug A concentration 1 µM, drug B concentration 0.0316228 µM | 0.233 | 0.223
drug A concentration 1 µM, drug B concentration 0.1 µM | 0.234 | 0.212
drug A concentration 1 µM, drug B concentration 0.316228 µM | 0.233 | 0.21
drug A concentration 1 µM, drug B concentration 1 µM | 0.234 | 0.217
drug A concentration 3.16228 µM, drug B concentration 0 µM | 0.245 | 0.227
drug A concentration 3.16228 µM, drug B concentration 31.62 pM | 0.243 | 0.224
drug A concentration 3.16228 µM, drug B concentration 0.0001 µM | 0.243 | 0.224
drug A concentration 3.16228 µM, drug B concentration 0.000316228 µM | 0.242 | 0.228
drug A concentration 3.16228 µM, drug B concentration 0.001 µM | 0.241 | 0.219
drug A concentration 3.16228 µM, drug B concentration 0.00316228 µM | 0.24 | 0.215
drug A concentration 3.16228 µM, drug B concentration 0.01 µM | 0.237 | 0.214
drug A concentration 3.16228 µM, drug B concentration 0.0316228 µM | 0.239 | 0.214
drug A concentration 3.16228 µM, drug B concentration 0.1 µM | 0.238 | 0.218
drug A concentration 3.16228 µM, drug B concentration 0.316228 µM | 0.238 | 0.213
drug A concentration 3.16228 µM, drug B concentration 1 µM | 0.239 | 0.215
